Test results from patent US10858388B2, “Selective progesterone receptor modulator (SPRM) regimen” (BAYER PHARMA AKTIENGESELLSCHAFT, priority 2015, dated 2020).
Entries after “also recorded” stand apart in the source; their conditions may differ.

Legend:
Type in all cases: in vivo, human
[1] = tested on: subjects with uterine fibroids; assay: Study 15788: endometrial thickness by transvaginal ultrasound, 3-month treatment (Example 3); details: 12 weeks
Protocol: (§1) A randomized, parallel-group, double-blind, placebo-controlled, multi-center study to assess efficacy of different doses of Compound 1 where primary efficacy variable is Endometrium thickness and secondary efficacy variable is PAEC in subjects with uterine fibroids over a 3-month treatment [1×12 weeks/84 days]
Doses: 0.5 mg, 1 mg, 2 mg, or 4 mg once daily
Route of administration: Oral
Duration of treatment: 1×12 weeks (84 days)
Women, 18 to 50 years old, with uterine fibroids documented by transvaginal or abdominal ultrasound at screening with at least 1 uterine fibroid with largest diameter 3 cm and heavy menstrual bleeding (HMB) 80 ml were eligible for enrolment in the study.
Eligible subjects were equally randomized to one of the treatment groups (Placebo, 0.5 mg, 1 mg, 2 mg, or 4 mg Compound 1). Treatment started during the first week of the menstrual cycle following randomization. The treatment period consisted of 12 weeks (84 days) of daily tablet intake.
(§2) Efficacy Measurement: • endometrial biopsies • cervical smear • transvaginal ultrasound TVU (endometrial thickness, ovaries)
Subjects that were detected with endometrial thickness (double layer)>18 mm (or suspicious bleeding pattern, e.g. continuous spotting, unusually heavy bleeding), were immediately evaluated by an additional endometrial biopsy.

[2] = tested on: subjects with uterine fibroids; assay: Study 15788: endometrial biopsies, PAEC and histology (Example 3)
Protocol: as §1
The first endometrial biopsy was performed on Day 9+/−2 of the first or second menstrual cycle after screening visit 1, i.e. at screening visit 2.
Biopsy was determined by randomization. This means that subjects were randomized to the time point of the second biopsy and were informed about the group they are in, directly after randomization followed by stratification by dose group.
If a subject was randomized to this time point, the biopsy was scheduled on Day 9+/−2 of the first menstrual cycle after the treatment visit 2 (corresponding to Visit 5), i.e. during the last 4 weeks of study drug treatment. If no menstrual bleeding occurs between the treatment visit 2 (Visit 5) and the end of treatment (EoT) visit (Visit 6), the biopsy was performed at the end of treatment (EoT) visit (Visit 6).
(§3) If a subject was randomized to this time point, the biopsy was scheduled on Day 9+/−2 of the first menstrual cycle after the end of treatment. If no menstrual bleeding occurs until 12 weeks after end of treatment, i.e. until the follow-up visit 2 (Visit 8), a biopsy was performed at the follow-up visit 2 (Visit 8) and induction of bleeding was considered.
as §3, with “second” for “first”
as §3, with “subject is” for “subject was”, “Day 9+1-2” for “Day 9+/−2”, “the third” for “the first”, “after” for “after the”, “bleeding occurred” for “bleeding occurs”
The third endometrial biopsy was performed at the follow-up visit 3 (Visit 9), which was scheduled on Day 9+/−2 of the menstrual cycle which started following Week 20 after the end of treatment. If no bleeding episode occurred, Visit 9 was performed 24 weeks after end of treatment, i.e. Visit 9 took place 21 to 24 weeks after the end of treatment in all subjects. If the second endometrial biopsy was performed less than 6 weeks before the scheduled date of the third endometrial biopsy and pathological findings were absent, the third endometrial biopsy was not required.
After the end of treatment, subjects were followed up for 21 to 24 weeks (Follow-up period). […] In case of findings that require further follow-up, additional visits were scheduled according to normal standard practice.
as §2
FIG. 2: PAEC in biopsy after 1st/2nd/3rd bleeding episodes (menses). Pharmacodynamic effecs on the endometrium. Percentage of subjects with PAEC.

[3] = tested on: uterine fibroids; assay: Study 15788: change in volume of largest fibroid by MRI and TVU (Example 8)
Protocol: A randomized, parallel-group, double-blind, placebo-controlled, multi-center study to assess efficacy of different doses of Compound 1 where secondary efficacy variable is the change in volume of the largest fibroid in subjects wherein treatment is of 3 months [1×12 weeks (84 days)]. Doses: 0.5 mg, 1 mg, 2 mg, or 4 mg once daily Route of administration: Oral Duration of treatment: 1×12 weeks (84 days) Women, 18 to 50 years old, with uterine fibroids documented by transvaginal or abdominal ultrasound at screening with at least 1 uterine fibroid with largest diameter 3 cm and heavy menstrual bleeding (HMB) 80 ml were be eligible for enrolment in the study. The secondary efficacy variable is the percent change in volume of the largest fibroid compared to baseline (measured by MRI and TVU) • MRI: Magnetic Resonance Imaging • TVU: Transvaginal/abdominal ultrasound Ultrasound examination was performed consistent with the schedule of procedures (Table 1). For each subject, the most appropriate ultrasound method (transvaginal or abdominal) was used depending on fibroid location and this method was consistently used throughout the study. The same ultrasound machine (per site) should be used throughout the study. The 3 largest fibroids were identified during the screening period. […]

C[C@]12C[C@H](c3ccc(S(C)(=O)=O)cc3)C3=C4CCC(=O)C=C4CC[C@H]3[C@@H]1CC[C@@]2(O)C(F)(F)C(F)(F)F [Compound 1, (11β,17β)-17-Hydroxy-11-[4-(methylsulphonyl)phenyl]-17-(pentafluoroethyl)estra-4,9-dien-3-one]
Endometrial thickness at EoT, max ([1]; 0.5 mg once daily oral): (27.0, 5.2) mm
Subjects with maximum endometrium thickness >18 mm, (%) ([1]; 0.5 mg once daily oral): (3.4) %
Median endometrial thickness at EoT ([1]; 0.5 mg once daily oral, n = 57): 9.0 mm
Endometrial thickness at EoT, max ([1]; 1 mg once daily oral): (41.0, 7.0) mm
Subjects with maximum endometrium thickness >18 mm, (%) ([1]; 1 mg once daily oral): (12.5) %
Median endometrial thickness at EoT ([1]; 1 mg once daily oral, n = 56): 10.0 mm
Endometrial thickness at EoT, max ([1]; 2 mg once daily oral): (27.0, 4.7) mm
Subjects with maximum endometrium thickness >18 mm, (%) ([1]; 2 mg once daily oral): (3.5) %
Median endometrial thickness at EoT ([1]; 2 mg once daily oral, n = 58): 7.5 mm
Endometrial thickness at EoT, max ([1]; 4 mg once daily oral): (20.0, 4.9) mm
Median endometrial thickness at EoT ([1]; 4 mg once daily oral, n = 56): 8.5 mm
Trend in endometrial thickness under treatment ([1]; 0.5-4 mg once daily): no clear trend for an increase
Treatment-emergent critical endometrial findings ([2]; 0.5-4 mg once daily, 12 weeks): No treatment-emergent critical endometrial findings occurred
Resolution of PAECs after bleeding episodes ([2]; break / follow-up after end of treatment): already resolved after one bleeding; also recorded: resolve PAECs already after one bleeding
Endometrial histology in biopsies at the end of follow-up ([2]; end of follow-up, all available samples): benign endometrial histology changes (PAEC)
Cases of hyperplasia ([2]; endometrial biopsies): no cases of hyperplasia
PAECs during follow-up ([2]; follow-up after 12 weeks treatment, FIG. 2): returned to background level
Fibroid size during treatment ([3]; 0.5-4 mg once daily, 12 weeks, MRI and TVU): dose-dependent reduction in fibroid size
Effect on fibroid size during follow-up ([3]; follow-up after 12 weeks treatment): partially sustained during follow-up
